Values joined by “and” are separate entries in the source; they are usually repeats but may differ in a detail not shown here. Identical values can stand only once. Active and inactive are the calls of the source.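 The calls were made as follows: active = compounds giving half or more protection of infected cells from virus-caused growth loss, again on retest; inactive = the rest.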 Where a SMILES comes first, the peptide text is derived from it. The star is where a group is joined. Boc = CC(C)(C)OC(=O)*; OtBu = CC(C)(C)O*
Test system: CEM cells HIV-1 protection, formazan growth assay
Test: NCI AIDS Antiviral Assay
Settings: for IC50: measured here: growth of uninfected CEM cells
In short: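 Protection of CEM cells against HIV-1 measured as cell growth via soluble formazan read-out, with five concentrations tested on both infected and uninfected cells; failure to protect may reflect toxicity.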

SMILES | EC50 | IC50 | outcome
CC(C)(C)OC(=O)CC(NC(=O)OC(C)(C)C)C(=O)NC(Cc1ccccc1)C(N)=O (stereo not drawn) (Boc-Asp(OtBu)-Phe-NH2; configuration not given here) | 162 µM | > 200 µM | –
N#CC1(c2ccccc2)CCN(C2(c3ccccc3)CCCCC2)CC1 | > 200 µM | > 200 µM | –
Cc1c2n(c(=O)[nH]c1=O)C1OC(CO)C(O2)C1O (stereo not drawn) | > 200 µM | > 200 µM | –
Cc1cc(C)c2c(c1)N[S@@](=O)S2 | > 13.5 µM | > 13.5 µM | –
COC(=O)c1cc(C(=CCCBr)c2cc(Cl)c(OC)c(C(=O)OC)c2)cc(Cl)c1OC | 16.6 µM | 21.9 µM | –
CCN(CC)CCC(=O)c1ccc(OC)cc1 | > 912 µM | 19.5 µM | –
NS(=O)(=O)c1nnc(NC(=O)c2ccccc2)s1 | > 200 µM | > 200 µM | –
CC1=Nc2cc(C)c(C)cc2NC(=O)C1 | > 200 µM | > 200 µM | –
Cc1ccccc1N=C1SCC(=O)N1c1ccccc1C | 141 µM | 191 µM | –
CC(C)(C)N1C(=O)c2ccccc2C1(O)C(F)(F)F (stereo not drawn) | > 200 µM | 135 µM | –
Cc1nc2[nH]ncn2c(=O)c1CCCl | > 200 µM | 34.7 µM | –
CC1=NN(c2ccccc2)C(=O)/C1=C1\SC(c2ccccc2)(c2ccccc2)c2ccccc21 | > 200 µM | > 200 µM | –
NC(=O)c1ccccc1NC(=O)C(=O)C(C(=O)c1ccc2ccccc2c1)C1OC(=O)c2ccccc21 (stereo not drawn) | > 52.5 µM | 15.8 µM | –
Cc1nnnn1C12CC3CC(CC(C3)C1)C2 | – | – | inactive
O=C1C(=O)N(c2cccc(C(F)(F)F)c2)C(=S)N1c1ccccc1 | > 200 µM | 30.9 µM | –
NC12c3c4cccc3Oc3cccc(c31)Oc1cccc(c12)O4 | > 50.1 µM | 28.8 µM | –
CN(C)NC(=O)/C(=C/c1ccc(Cl)cc1)NC(=O)c1ccccc1 | > 145 µM | > 145 µM | –
CCOC(=O)COS(=O)(=O)C(F)(F)F | > 1050 µM | > 1050 µM | –
Cc1cc(C)c2c(c1)CC1(Cc3c(C)cc(C)cc3C1=O)C2=O (stereo not drawn) | > 100 µM | > 100 µM | –
Nc1[nH]nc2nc3ccc(C(F)(F)F)cc3nc12 | > 200 µM | 29.5 µM | –
O=c1c2ccc(Cl)cc2nc2nc(-c3ccccc3)c3cc(Cl)ccc3n12 | > 200 µM | > 100 µM | –

SMILES | EC50 | IC50 | outcome
CC12CC(=O)CC1(C)CC(=O)C2 (stereo not drawn) | > 537 µM | > 537 µM | –
Cc1cc(=O)[nH]c(NNC(C#N)c2cccc(O)c2)n1 (stereo not drawn) | > 347 µM | 123 µM | –
CCOC(=O)Cn1c2ccccc2c(=O)c2cc(C)c(C)c(C#N)c21 | > 21.4 µM | > 21.4 µM | –
CN1C(=O)N/C(=C\c2ccc(S(=O)(=O)N/N=C\C(O)C(O)C(O)C(O)CO)cc2)C1=O (stereo not drawn) | > 200 µM | > 200 µM | –
CC(C)CCC[C@@H](C)C1CCC2[C@@H]3CC=C4C[C@@H](OC(=O)CCC(=O)NCC[N+](C)(C)CCCS(=O)(=O)[O-])CC[C@]4(C)C3CC[C@@]21C (stereo partly drawn) | – | – | inactive
O=C(NNCc1ccccc1O)c1ccccc1O | > 200 µM | 2.88 µM | –
Cc1nc(N(C(C)C)C(C)C)c(C(C)C)o1 | > 200 µM | > 200 µM | –
CCOC(=O)c1c(SC)nc(-c2ccc(Cl)cc2)sc1=N | > 200 µM | 12 µM | –
Cc1ccccc1NC(=O)NC(Oc1ccccc1)(C(F)(F)F)C(F)(F)F | > 200 µM | > 200 µM | –
CCOC(=O)Nc1ccc2nc(-c3cscn3)[nH]c2c1 | > 457 µM | 1.66 µM | –
COc1ccc(C=O)cc1Oc1ccc(C[C@H]2c3c(cc(OC)c4c3Oc3cc5c(cc3O4)CCN(C)C5=O)CCN2C)cc1 | > 200 µM | 9.77 µM | –
S=c1[nH]ccs1 | > 200 µM | > 200 µM | –
CCNc1cc2c3c(c1)CCCN3CCC2 | > 200 µM | 8.51 µM | –
CCOc1ccc(C(=O)CCN2CCC3CCC(C3)C2)cc1 (stereo not drawn) | > 200 µM | 13.8 µM | –
CC(=O)/C=c1\[nH]/c(=C\C=C\c2ccccc2)c(=O)n1/C=C1\C(=O)Oc2ccccc2C1=O | > 200 µM | 166 µM | –
COc1cc2c(c(C)c1O)[C@H]1Cc3ccccc3[C@H]1O2 | > 7.41 µM | > 7.41 µM | –
CCN(CC)CCCC(C)Nc1cc(-c2ccccc2)nc2ccccc12 (stereo not drawn) | > 17.8 µM | 7.76 µM | –
CCOC(=O)C[C@@H]1C2(C=C[C@@]13CO3)OCC(C)(C)CO2 | > 200 µM | 129 µM | –
Oc1ccccc1SSc1ccccc1O | > 200 µM | 63.1 µM | –
CCCCCCCCCCCCCCCCOC1OC(CCSSC2OC(OCCCCCCCCCCCCCCCC)C(O)C(O)C2O)C(O)C(O)C1O (stereo not drawn) | > 3.24 µM | > 3.24 µM | –
N#Cc1c(-c2ccc(NCc3nc4ccccc4[nH]3)cc2)cc(-c2ccco2)[nH]c1=O | > 200 µM | 27.5 µM | –

SMILES | EC50 | IC50 | outcome
O=C(CC1(O)C(=O)Nc2c(Cl)cc(Cl)cc21)c1cccc([N+](=O)[O-])c1 (stereo not drawn) | > 19.1 µM | > 19.1 µM | –
CC(C)CCC[C@@H](C)[C@H]1CC[C@H]2[C@@H]3CC[C@H]4C[C@@H](NC(=O)CC=C(c5cc(Cl)c(O)c(C(=O)O)c5)c5cc(Cl)c(O)c(C(=O)O)c5)CC[C@]4(C)[C@H]3CC[C@]12C | 24 µM | 170 µM | –
COc1ccc(-c2onc(-c3ccc([N+](=O)[O-])cc3)c2C2=NCCCN2)cc1 | > 50.1 µM | > 50.1 µM | –
CC(C)CC1=[N+]=C(NC#N)N=C(CCC(=O)Nc2ccccc2[N+](=O)[O-])C1 | > 676 µM | > 676 µM | –
O=C1c2ccccc2-c2c1c1ccccc1c(=O)n2Cc1ccco1 | > 11.5 µM | > 11.5 µM | –
CC(=O)OCC1OC(Nc2cc(=O)n(C)c(=O)[nH]2)C(OC(C)=O)C(OC(C)=O)C1OC(C)=O (stereo not drawn) | – | – | inactive
C=C1CN(S(=O)(=O)c2ccc(C)cc2)CCCN(C(=O)OC)CCCN(S(=O)(=O)c2ccc(C)cc2)C1 | > 200 µM | 107 µM | –
Fc1cc(-c2ncc(Cl)cc2Cl)c2cccccc1-2 | > 100 µM | > 100 µM | –
O=C(NOC(=O)c1ccc([N+](=O)[O-])cc1)c1ccc(Cl)cc1 | > 112 µM | > 112 µM | –
CSC1(C)CC2C(CC1N1CCCCC1)C2(C)C (stereo not drawn) | > 93.3 µM | 44.7 µM | –
CC(C)CCCC(C)[C@H]1CC[C@H]2[C@@H]3CC[C@H]4C[C@@H](CCCC(c5cc(Cl)c(OCc6ccc(C(=O)O)cc6)c(C(=O)O)c5)c5cc(Cl)c(OCc6ccc(C(=O)O)cc6)c(C(=O)O)c5)CC[C@]4(C)[C@H]3CC[C@]12C (stereo partly drawn) | 20.4 µM and 3.39 µM | > 200 µM and 20 µM | –
CCCCCCCCCCCCCCNC1=C(OC)C(=O)C(NCCCCCCCCCCCCCC)=C(OC)C1=O | > 79.4 µM | > 79.4 µM | –
CCOC(=O)C(C)P(=O)(OC)OC (stereo not drawn) | > 200 µM | > 200 µM | –
CCCCc1c2c(nc3c1CCc1cc4cc5c(nc4nc1-3)-c1nc3c(c(CCCC)c1CC5)CCC/C3=C\c1ccccc1)/C(=C/c1ccccc1)CCC2 | > 1.95 µM | > 1.95 µM | –
Cc1nn(-c2cc(Cl)ccc2[N+](=O)[O-])c(C)c1Cl | > 200 µM | 166 µM | –
O=C(Cn1c2ccc(Br)cc2c2nc3ccccc3nc21)NNC(=O)NC1CCCCC1 | > 200 µM | 182 µM | –
Cc1cc(C)c2c(c1C)CN1CN2Cc2c(C)c(C)cc(C)c21 | – | – | inactive
CN1CCN(C(=S)N(C(=O)c2ccc(Cl)cc2)C2CCCCC2)CC1 | > 95.5 µM | 45.7 µM | –
[O]=[Sb][c]1ccc(Br)cc1 | > 200 µM | 4.57 µM | –
